Source: paper PMC4446623, “Tackling the Cytotoxic Effect of a Marine Polycyclic Quinone-Type Metabolite: Halenaquinone Induces Molt 4 Cells Apoptosis via Oxidative Stress Combined with the Inhibition of HDAC and Topoisomerase Activities” (Marine Drugs, 2015)

Legend:
topo IIα = target: T1, topo IIα (Homo sapiens, UniProt P11388); test: cell-free relaxation assay of supercoiled pHOT1 plasmid DNA with purified human topo II, agarose gel; format: biochemical
T1 construct: gene TOP2A

topo I = target: T2, topo I (Homo sapiens, UniProt P11387); test: cell-free relaxation assay of supercoiled pHOT1 plasmid DNA with purified human topo I, agarose gel; format: biochemical
T2 construct: gene TOP1
T2 sequence (P11387 2-765): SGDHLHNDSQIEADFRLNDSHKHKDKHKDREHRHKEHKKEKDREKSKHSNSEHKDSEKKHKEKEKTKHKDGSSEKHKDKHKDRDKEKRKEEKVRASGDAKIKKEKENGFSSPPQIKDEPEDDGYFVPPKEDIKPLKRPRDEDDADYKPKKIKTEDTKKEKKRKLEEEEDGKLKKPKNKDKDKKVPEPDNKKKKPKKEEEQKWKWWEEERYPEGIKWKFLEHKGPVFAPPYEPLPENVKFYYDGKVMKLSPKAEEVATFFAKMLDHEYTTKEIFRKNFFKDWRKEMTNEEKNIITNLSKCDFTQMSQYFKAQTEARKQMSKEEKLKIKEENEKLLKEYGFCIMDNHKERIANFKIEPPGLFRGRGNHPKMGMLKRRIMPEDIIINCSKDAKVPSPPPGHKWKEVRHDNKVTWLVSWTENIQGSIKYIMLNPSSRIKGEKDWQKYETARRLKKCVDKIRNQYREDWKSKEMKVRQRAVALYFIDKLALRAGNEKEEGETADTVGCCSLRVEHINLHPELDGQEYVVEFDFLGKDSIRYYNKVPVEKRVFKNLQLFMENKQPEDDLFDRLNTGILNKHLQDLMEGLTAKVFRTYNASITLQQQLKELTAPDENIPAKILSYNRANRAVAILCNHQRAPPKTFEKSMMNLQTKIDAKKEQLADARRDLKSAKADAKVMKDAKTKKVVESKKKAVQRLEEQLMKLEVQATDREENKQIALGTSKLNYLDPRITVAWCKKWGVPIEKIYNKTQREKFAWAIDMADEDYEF

T1 sequence (P11388 whole entry): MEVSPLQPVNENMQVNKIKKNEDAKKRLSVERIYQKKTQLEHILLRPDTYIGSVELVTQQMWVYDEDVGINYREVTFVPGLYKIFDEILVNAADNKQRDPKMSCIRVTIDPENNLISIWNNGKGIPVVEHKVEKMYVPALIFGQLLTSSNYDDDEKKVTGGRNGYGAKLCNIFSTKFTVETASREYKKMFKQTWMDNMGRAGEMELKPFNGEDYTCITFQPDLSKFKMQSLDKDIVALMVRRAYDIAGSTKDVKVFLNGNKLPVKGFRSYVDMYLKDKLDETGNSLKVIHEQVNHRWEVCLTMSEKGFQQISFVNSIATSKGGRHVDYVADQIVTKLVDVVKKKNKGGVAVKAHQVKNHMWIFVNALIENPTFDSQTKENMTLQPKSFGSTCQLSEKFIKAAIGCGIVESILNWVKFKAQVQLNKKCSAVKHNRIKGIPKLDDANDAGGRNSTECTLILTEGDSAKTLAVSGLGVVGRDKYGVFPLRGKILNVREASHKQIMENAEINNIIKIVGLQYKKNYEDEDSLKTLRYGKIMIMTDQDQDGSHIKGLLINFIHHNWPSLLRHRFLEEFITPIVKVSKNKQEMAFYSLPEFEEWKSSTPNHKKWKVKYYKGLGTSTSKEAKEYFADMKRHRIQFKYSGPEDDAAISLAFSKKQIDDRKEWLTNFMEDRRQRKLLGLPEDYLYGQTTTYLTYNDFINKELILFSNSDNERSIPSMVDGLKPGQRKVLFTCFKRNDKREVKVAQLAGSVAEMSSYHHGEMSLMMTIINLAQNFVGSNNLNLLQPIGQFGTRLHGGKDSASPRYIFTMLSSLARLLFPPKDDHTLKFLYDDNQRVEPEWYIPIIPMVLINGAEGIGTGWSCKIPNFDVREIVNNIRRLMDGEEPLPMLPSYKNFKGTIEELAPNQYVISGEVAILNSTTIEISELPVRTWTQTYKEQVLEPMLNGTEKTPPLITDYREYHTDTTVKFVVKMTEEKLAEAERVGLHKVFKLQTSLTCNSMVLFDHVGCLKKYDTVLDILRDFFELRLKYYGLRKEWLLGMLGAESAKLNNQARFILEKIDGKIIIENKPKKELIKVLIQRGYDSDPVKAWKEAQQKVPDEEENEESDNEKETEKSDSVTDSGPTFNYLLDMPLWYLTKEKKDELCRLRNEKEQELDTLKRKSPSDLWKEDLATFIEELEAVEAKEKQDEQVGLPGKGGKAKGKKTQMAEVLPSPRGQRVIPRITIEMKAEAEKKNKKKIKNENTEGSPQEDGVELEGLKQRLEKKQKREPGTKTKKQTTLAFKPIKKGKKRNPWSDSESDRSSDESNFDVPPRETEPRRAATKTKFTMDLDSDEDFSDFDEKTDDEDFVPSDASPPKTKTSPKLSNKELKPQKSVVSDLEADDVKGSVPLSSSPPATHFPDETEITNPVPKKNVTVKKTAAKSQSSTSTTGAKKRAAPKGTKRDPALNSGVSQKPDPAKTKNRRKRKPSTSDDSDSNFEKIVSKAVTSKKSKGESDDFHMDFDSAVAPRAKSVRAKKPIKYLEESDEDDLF

With C[C@@]12CCC(=O)c3coc(c31)C(=O)c1cc3c(cc12)C(=O)C=CC3=O [HQ, halenaquinone] the IC50 (topo IIα) was 0.0166 µM and the IC50 (topo I) was 3.58 µM.
